{"source": "patent US8716250B2", "about": "“Diazoxide for the treatment of Friedreich's ataxia” (Universita' Degli Studi di Bari, priority 2008, dated 2014)", "key": {"[1]": {"tested_on": "frataxin", "experiment": "Quantitative real-time RT-PCR of frataxin expression in immortalized lymphoblastoid cell lines of FRDA patients", "assay_type": "cell-based, human", "settings": "FRDA patient lymphoblastoid cells, 24 hours", "experimental": "Extraction of the RNA from the cells is performed according to the indications contained in the QIAconnect Gene Expression (Qiagen) kit. Particularly the samples are lysed and homogenated. Ethanol is then added to the treated samples to provide ideal conditions for the bond with the silica-gel RNase membrane. In this way the RNA binds and the contaminants are washed; the pure RNA is concentrated and eluted. The concentration of the extracted RNA is determined by UV spectrophotometric method under suitable reading conditions. The reverse transcription reaction is performed with the GeneAmp RNA PCR core (Applied Biosystems) kit according to the indications provided by the manufacturer. Quantification of the reverse-transcribed product is performed using fluorescent probes capable of hybridizing and specifically pairing DNA regions of interest. The probes used according to the invention are Probe Hs 00175940_m1 and Probe Hs 99999903 ml (Applied Biosystems). Particularly the probe defined Hs 00175940_m1 represents the specific probe able to recognise and hybridize the human frataxin gene, while the probe Hs 99999903 ml recognises the human actin and is useful for normalising the mRNA values of the target. The analyzing step of the results is performed by substituting the mathematical formula 2^−ΔΔCt with the difference between the target threshold cycle in the samples treated and not treated (control) with diazoxide, normalised with the threshold cycle value of the reference gene (actin), in the case in question ΔCt=Ct Hs00175940—m1−Ct Hs99999903—m1. ΔΔCt=ΔCt(treated sample)−ΔCt(control sample) The result of the calculation 2^−ΔΔCt represents the relative quantification value. Said value permits determination of the quantity of frataxin (which represents the target) in the sample treated with diazoxide with respect to the quantity of frataxin in the sample not treated with diazoxide (which represents the control) normalised for the quantity of actin (which represents the reference or internal standard) in the same sample. The expression level and therefore the quantity of frataxin of cells deriving from immortalized lymphoblastoid cell lines of FRDA patients treated as described in examples 2 and 3 was compared 24 hours after the treatment. […] In particular, the broken vertical line represents the threshold value above which the increase in frataxin expression can be seen. The experiment was conducted testing the cells with concentrations of diazoxide varying from 25 nM to 100 μM in combination with fixed concentrations of glucose 20 mM. The expression and therefore the quantity of frataxin in cells deriving from immortalized lymphoblastoid cell lines of FRDA patients was compared."}, "[2]": {"tested_on": "frataxin", "experiment": "Western blot analysis of frataxin in HEK 293 cells", "assay_type": "cell-based, human", "settings": "for frataxin expression, western blot: 4 or 5 days after the initial treatment", "experimental": "The human cell line HEK 293 (Human Embryonic Kidney) grown in Dulbecco's modified Eagle's medium (DMEM, Sigma) with the addition of 10% foetal bovine serum (FBS) (v/v), glutamine 2 mM, penicillin 100 unit/ml and streptomycin 100 μg/ml is kept in an incubator at a temperature of 37° C. and 5% CO2. Preferably the HEK 293 cells, cultured on 60 mm plates at a concentration of 0.5×10^6, after at least 14 hours of growth have a 70-80% confluence. […] The cells treated as described in example 1 are lysed with a lysis buffer (0.15 M NaCl, 5 mM EDTA, pH 8, 1% Triton X100, 10 mM Tris-Cl, pH 7.4) and transferred to microcentrifuge tubes. A quantity of approximately 50 μg of cell suspension is separated by electrophoresis in the presence of SDS (sodium dodecyl sulphate) at 17% (denaturing conditions). The resulting product is transferred onto nitrocellulose membranes. Identification of the presence of the target protein, i.e. the frataxin, is performed with a rabbit polyclonal primary antibody directed against said protein (Santa Cruz Biotechnology), and a goat-anti rabbit HRP secondary antibody (Pierce). The reaction was identified with enzymatic method by means of ECL plus system (Amersham)."}, "[3]": {"tested_on": "frataxin", "experiment": "Quantitative real-time RT-PCR of frataxin expression in HEK 293 cells", "assay_type": "cell-based, human", "experimental": "The human cell line HEK 293 (Human Embryonic Kidney) grown in Dulbecco's modified Eagle's medium (DMEM, Sigma) with the addition of 10% foetal bovine serum (FBS) (v/v), glutamine 2 mM, penicillin 100 unit/ml and streptomycin 100 μg/ml is kept in an incubator at a temperature of 37° C. and 5% CO2. Preferably the HEK 293 cells, cultured on 60 mm plates at a concentration of 0.5×10^6, after at least 14 hours of growth have a 70-80% confluence. […] Extraction of the RNA from the cells is performed according to the indications contained in the QIAconnect Gene Expression (Qiagen) kit. Particularly the samples are lysed and homogenated. Ethanol is then added to the treated samples to provide ideal conditions for the bond with the silica-gel RNase membrane. In this way the RNA binds and the contaminants are washed; the pure RNA is concentrated and eluted. The concentration of the extracted RNA is determined by UV spectrophotometric method under suitable reading conditions. The reverse transcription reaction is performed with the GeneAmp RNA PCR core (Applied Biosystems) kit according to the indications provided by the manufacturer. Quantification of the reverse-transcribed product is performed using fluorescent probes capable of hybridizing and specifically pairing DNA regions of interest. The probes used according to the invention are Probe Hs 00175940_m1 and Probe Hs 99999903 ml (Applied Biosystems). Particularly the probe defined Hs 00175940_m1 represents the specific probe able to recognise and hybridize the human frataxin gene, while the probe Hs 99999903 ml recognises the human actin and is useful for normalising the mRNA values of the target. The analyzing step of the results is performed by substituting the mathematical formula 2^−ΔΔCt with the difference between the target threshold cycle in the samples treated and not treated (control) with diazoxide, normalised with the threshold cycle value of the reference gene (actin), in the case in question ΔCt=Ct Hs00175940—m1−Ct Hs99999903—m1. ΔΔCt=ΔCt(treated sample)−ΔCt(control sample) The result of the calculation 2^−ΔΔCt represents the relative quantification value. Said value permits determination of the quantity of frataxin (which represents the target) in the sample treated with diazoxide with respect to the quantity of frataxin in the sample not treated with diazoxide (which represents the control) normalised for the quantity of actin (which represents the reference or internal standard) in the same sample. For example a value of 1 is attributed to the control samples, i.e. HEK 293 cells not treated with diazoxide chosen as references."}, "[4]": {"tested_on": "frataxin", "experiment": "Western blot analysis of frataxin in cells of FRDA patients", "assay_type": "cell-based, human", "settings": "FRDA patient cells, 24 hours after the initial treatment", "experimental": "The cells treated as described in example 1 are lysed with a lysis buffer (0.15 M NaCl, 5 mM EDTA, pH 8, 1% Triton X100, 10 mM Tris-Cl, pH 7.4) and transferred to microcentrifuge tubes. A quantity of approximately 50 μg of cell suspension is separated by electrophoresis in the presence of SDS (sodium dodecyl sulphate) at 17% (denaturing conditions). The resulting product is transferred onto nitrocellulose membranes. Identification of the presence of the target protein, i.e. the frataxin, is performed with a rabbit polyclonal primary antibody directed against said protein (Santa Cruz Biotechnology), and a goat-anti rabbit HRP secondary antibody (Pierce). The reaction was identified with enzymatic method by means of ECL plus system (Amersham). […] It can be seen that the cells of the patients treated according to the invention present an evident band as expression of the quantity of frataxin present with respect to the non-treated control."}, "[5]": {"settings": "children treated with ibedenone; cited from earlier work"}, "[6]": {"settings": "diazoxide in combination with glucose"}, "[7]": {"settings": "diazoxide in combination with leucine"}}, "note": "“Also recorded” adds a separate entry of the source.", "data": [{"smiles": "CC1=NS(=O)(=O)c2cc(Cl)ccc2N1", "note": "[diazoxide, 7-chloro-3-methyl-4H-1,2,4 benzothiadiazine 1,1-dioxide]", "values": [{"measurement": "frataxin expression levels, deviation from the threshold line", "setting": "[1]; diazoxide 100 μM combined with glucose 20 mM", "result": "significant deviation from the threshold line"}, {"measurement": "effect on frataxin expression of the combination", "setting": "[1]; [6]", "result": "synergic effect"}, {"measurement": "effect on frataxin expression of the combination", "setting": "[1]; [7]", "result": "synergic effect"}, {"measurement": "frataxin expression levels, deviation from the threshold line", "setting": "[1]; some particular concentrations of diazoxide (25 nM to 100 μM tested) with glucose 20 mM", "result": "minimum deviation from the threshold line"}, {"measurement": "frataxin quantity (band intensity) versus control cells", "setting": "[2]; HEK 293, cells treated as in example 1 (diazoxide 100 μM with glucose 20 mM, 24 hours)", "result": "greater than that of the control cells"}, {"measurement": "frataxin expression, western blot", "setting": "[2]; [6]", "result": "maintain the increase in expression"}, {"measurement": "frataxin expression, western blot", "setting": "[2]; [7]", "result": "maintain the increase in expression"}, {"measurement": "frataxin expression levels, deviation from the threshold line", "setting": "[3]; HEK 293, diazoxide 100 μM combined with leucine 10 mM, 24 hours", "result": "significant deviation from the threshold line"}, {"measurement": "increase in the quantity of frataxin with respect to the non-treated control over time", "setting": "[3]; HEK 293, diazoxide 100 μM together with glucose 20 mM, 48 and 72 hours after the treatment", "result": "remains constant"}, {"measurement": "quantity of frataxin / frataxin expression with respect to the non-treated control", "setting": "[3]; HEK 293, diazoxide 100 μM with glucose 20 mM, 24 hours", "result": "increased quantity of frataxin; also recorded: significant deviation from the threshold line"}, {"measurement": "frataxin expression levels, deviation from the threshold line", "setting": "[3]; HEK 293, diazoxide only (25 nM or 100 μM without glucose), 24 hours", "result": "minimum deviation from the threshold line"}, {"measurement": "frataxin expression, western blot, with respect to the non-treated control", "setting": "[4]; [6]", "result": "maintain the increase in expression"}, {"measurement": "frataxin expression, western blot, with respect to the non-treated control", "setting": "[4]; [7]", "result": "maintain the increase in expression"}]}, {"smiles": "COC1=C(OC)C(=O)C(CCCCCCCCCCO)=C(C)C1=O", "note": "[ibedenone]", "values": [{"measurement": "benefits at neurological level", "setting": "[5]", "result": "practically nil"}, {"measurement": "children treated presenting an improvement in some of the symptoms", "setting": "[5]", "result": 85, "unit": "%"}]}, {"smiles": "CC(C)C[C@H](N)C(=O)O", "note": "[leucine]", "values": [{"measurement": "frataxin expression levels, deviation with respect to the non-treated control", "setting": "[3]; HEK 293, leucine only 10 mM, 24 hours", "result": "minimum deviation with respect to the non-treated control"}]}]}
